Measurements: article PMC8791477, “Evaluation of SARS-CoV-2 entry, inflammation and new therapeutics in human lung tissue cells” (PLoS Pathogens, 2022)
Counter-ions that a name gives are not always drawn. Like-named read-outs stand apart in the source and are kept apart here.

Experiments:
[1] = test system: VSV*ΔG(Luc)-S virus (SARS-CoV-2 spike, D614G); settings: for EC50: read-out: EC50 HLT
[2] = test system: VSV*ΔG(Luc)-S virus (SARS-CoV-2 spike, D614G); settings: for EC50: read-out: EC50 Vero E6

Compound	EC50 [1]	EC50 Vero E6 [2]	EC50 HLT [1]	other results
[H]/N=C(/N)N/C(=N/[H])NCCc1ccccc1 [Phenformin]	38.2 µM	–	–	viral entry in HLT cells (in words) [1]: significantly reduced viral entry
Cc1ccc(-c2cc(C(F)(F)F)nn2-c2ccc(S(N)(=O)=O)cc2)cc1 [Celecoxib]	55.7 µM	–	–	EC50 [2]: 13 µM
O=c1c(O)c(-c2ccc(O)c(O)c2)oc2cc(O)cc(O)c12 [Quercetin]	–	–	–	viral entry in VeroE6 cells (in words) [2]: some viral entry suppression; EC50 [2]: > 100 µM
C[C@]12CCC(=O)C=C1CC[C@@H]1[C@@H]2[C@@H](O)C[C@@]2(C)[C@H]1CC[C@]2(O)C(=O)CO [Cortisol]	–	No effect	No effect	–
O=C1CN(/N=C/c2ccc([N+](=O)[O-])o2)C(=O)N1 [Nitrofurantoin]	–	No effect	No effect	–
CN(C)C(=N)N=C(N)N [Metformin]	–	No effect	No effect	–
CC(C)C(=O)OCC(=O)[C@@]12O[C@H](C3CCCCC3)O[C@@H]1C[C@H]1[C@@H]3CCC4=CC(=O)C=C[C@]4(C)[C@H]3[C@@H](O)C[C@@]12C [Ciclesonide]	16.4 µM	–	–	EC50 [2]: 20.5 µM
C[C@@H]1C[C@H]2[C@@H]3CCC4=CC(=O)C=C[C@]4(C)[C@@]3(F)[C@@H](O)C[C@]2(C)[C@@]1(O)C(=O)CO [Dexamethasone]	–	No effect	No effect	viral entry in VeroE6 cells (in words) [2]: without any apparent impact
CCCCCCCCCCCC(=O)O [Lauric acid]	–	No effect	No effect	–
CC1(C)Cc2c(-c3ccccc3)c(-c3ccc(Cl)cc3)c(CC(=O)O)n2C1 [Licofelone]	32.2 µM	–	–	–
Cc1ccnc(NS(=O)(=O)c2ccc(N)cc2)n1 [Sulfamerazine]	–	No effect	No effect	–
CC(C)Cc1ccc(C(C)C(=O)O)cc1 (stereo not shown) [Ibuprofen]	–	No effect	No effect	–
COc1ccc2cc1Oc1ccc(cc1)C[C@H]1c3c(cc4c(c3Oc3cc5c(cc3OC)CCN(C)[C@@H]5C2)OCO4)CCN1C [Cepharanthine]	–	–	–	SI VeroE6 (CC50/EC50) [2]: 48.47; SI HLT (CC50/EC50) [1]: 2.64
C[C@]1(Cn2ccnn2)[C@H](C(=O)O)N2C(=O)C[C@H]2S1(=O)=O [Tazobactam]	–	No effect	No effect	–
CCCCCCCCCC(=O)OCC(O)CO (stereo not shown) [Monocaprin]	–	No effect	No effect	–
CC(C)[C@H](N)C(=O)OCCOCn1cnc2c(=O)[nH]c(N)nc21 [Valaciclovir]	> 100 µM	–	–	viral entry in HLT cells (in words) [1]: some inhibitory potential
Cc1cc(NS(=O)(=O)c2ccc(N)cc2)no1 [Sulfamethoxazole]	–	No effect	No effect	–
N[C@@H](CC(=O)N1CCn2c(nnc2C(F)(F)F)C1)Cc1cc(F)c(F)cc1F [Sitagliptin]	–	No effect	No effect	–
O=c1cc(-c2ccc(O)c(O)c2)oc2cc(O)cc(O)c12 [Luteolin]	~82.4 µM	–	–	EC50 [2]: ~70.7 µM

Compound	EC50 [1]	EC50 Vero E6 [2]	EC50 HLT [1]	other results
Ivermectin	13 µM	–	–	SI VeroE6 (CC50/EC50) [2]: 1.4; EC50 [2]: 13.9 µM; SI HLT (CC50/EC50) [1]: 7.75; viral entry in HLT cells (in words) [1]: effective antiviral
O=C1C[C@@H](c2ccc(O)c(O)c2)Oc2cc(O)cc(O)c21 [Eriodictyol]	90 µM	–	–	viral entry in HLT cells (in words) [1]: certain activity
C[C@]12C=CC(=O)C=C1CC[C@@H]1[C@@H]2C(=O)C[C@@]2(C)[C@H]1CC[C@]2(O)C(=O)CO [Prednisone]	–	No effect	Some effect	viral entry in VeroE6 cells (in words) [2]: without any apparent impact; viral entry in HLT cells (in words) [1]: partial reduction of viral entry
NC(=O)[C@@H]1CCCN1C(=O)[C@H](Cc1c[nH]cn1)NC(=O)[C@@H]1CCC(=O)N1 [Protilerin]	–	No effect	No effect	–
C[C@H](O)[C@H](O)[C@H]1CNc2nc(N)[nH]c(=O)c2N1 [Tetrahydrobiopterin, Tetrahydrobiopterin dihydrochloride]	–	No effect	No effect	–
Cc1cc(O)c2c(=O)c3c(O)cc(O)c4c5c(O)cc(O)c6c(=O)c7c(O)cc(C)c8c1c2c(c34)c(c78)c65 [Hypericin]	0.31 µM	–	–	EC50 [2]: 1.24 µM
N#C[C@@H]1CCCN1C(=O)CNC12CC3CC(CC(O)(C3)C1)C2 [Vidagliptin, Vildagliptin]	–	No effect	No effect	–
CCCCCCCCCCCCOS(=O)(=O)[O-].[Na+] [SLS, Sodium lauryl sulfate]	> 100 µM	–	–	EC50 [2]: ~26.4 µM
CC1(C)[C@@H](O[C@H]2O[C@H](C(=O)O)[C@@H](O)[C@H](O)[C@H]2O[C@@H]2O[C@H](C(=O)O)[C@@H](O)[C@H](O)[C@H]2O)CC[C@]2(C)[C@H]3C(=O)C=C4[C@@H]5C[C@@](C)(C(=O)O)CC[C@]5(C)CC[C@@]4(C)[C@]3(C)CC[C@@H]12 [Glycyrrhizin]	–	No effect	No effect	–
recombinant protein AXL	–	–	–	viral entry in HLT cells with entry-factor blockers (in words) [1]: inhibited SARS-CoV-2 entry
Cc1cccn2c(=O)c(-c3nnn[nH]3)cnc12 [Pemirolast, Pemirolast potassium]	–	No effect	No effect	–
CCCCCCCCCCCC(=O)OCC(O)CO (stereo not shown) [Monolaurin]	–	No effect	No effect	–
Oc1ccc(CC2NCCc3cc(O)c(O)cc32)cc1 (stereo not shown) [Higenamine, Higenamine hydrochloride]	–	No effect	No effect	–
O=c1c(O)c(-c2cc(O)c(O)c(O)c2)oc2cc(O)cc(O)c12 [Myricetin]	–	No effect	No effect	–
O=C1Nc2ccccc2/C1=C1/Nc2ccccc2C1=O [Indirubin]	–	No effect	No effect	–
Nc1ncnc2c1ncn2[C@@H]1O[C@H](CO)[C@@H](O)[C@@H]1O [Vidarabine]	51.6 µM	–	–	EC50 [2]: > 100 µM
CN(C)C(=O)COC(=O)Cc1ccc(OC(=O)c2ccc(NC(=N)N)cc2)cc1 [Camostat, Camostat mesylate]	–	–	–	viral entry in HLT cells with entry-factor blockers (in words) [1]: significantly inhibited viral entry
Ergoloid mesylates	9.17 µM	–	–	SI VeroE6 (CC50/EC50) [2]: 3.9; EC50 [2]: 4.78 µM; SI HLT (CC50/EC50) [1]: 11.38; viral entry inhibition in HLT cells [1]: ~ 90%
CC1=C(CC(=O)O)c2cc(F)ccc2/C1=C\c1ccc([S+](C)[O-])cc1 (stereo not shown) [Sulindac]	> 100 µM	No effect	–	–
